We go through 2 molecules from patent US20190375791A1, “NEW D-CONFIGURED CATESLYTIN PEPTIDE” (priority 2016, published 2019).

The test system of data set [1] is Enterococcus faecalis. In kind it is cell-based. To be noted: saturated solution of Ca(OH)2 (1.7 mg/mL, pH 9). As for the experimental part: (§1) Enterococcus faecalis (CCM 2541) was obtained from the Czechoslovac Collection of Microorganisms (Czech Republic) Bacteria were cultured in Anaerobe Basal Broth (Oxoid, France) at 37° C. in anaerobic conditions. Candida albicans (ATCC© 10231™) was cultured in Sabouraud medium (BD, France) supplemented with tetracycline (10 μg/mL) and cefotaxime (10 μg/mL).
(§2) An overnight culture of each pathogen was diluted (OD600 nm=0.001) and incubated at 37° C. in 96-plates in the presence of different concentrations of antimicrobial agents. When testing Ca(OH)2, the pH of the solution was measured with by pH meter. (CyberScan pH 510©, Eutech, France). After 24 h incubation, the OD620 nm was evaluated with a spectrophotometer (Multikan EX, ThermoScientific, France). Each assay was done at least in triplicate. For each set of assay, the standard deviation was determined.

Data set [2] relates to Candida albicans. In words: Broth dilution assay (Example 2). It counts as cell-based. To be noted: Ca(OH)2 0.85 mg/mL alone, or combined with ½ MIC of D-CTL. As to the method: as §1, §2
For orientation: Broth dilution looks for growth in wells or tubes with falling amounts of substance.

Data set [3] has as its system Fusobacterium nucleatum. In words: Broth dilution assay (Example 2). It counts as cell-based. As for the experimental part: as §1, §2
Data set [4] has as its system Prevotella intermedia. In words: Broth dilution assay (Example 2). It counts as cell-based. To be noted: Ca(OH)2 0.85 mg/mL alone, or combined with ½ MIC of D-CTL. As for the experimental part:
as §1, §2

Data set [5] deals with Parvimonas micra. The data set can be described thus: Broth dilution assay (Example 2). It counts as cell-based. Conditions: Ca(OH)2 0.85 mg/mL alone, or combined with ½ MIC of D-CTL.
Data set [6] relates to HGF-1 cells. The data set can be described thus: MTT cytotoxicity assay on HGF-1 cells (Example 2). In kind it is cell-based, human. As to the method: The mammalian cell line HGF-1 (ATCC® CRL-2014™) was commercially obtained by ATCC and cultured at 37° C. and 5% CO2 in Dulbecco's Modified Eagle's Medium (Thermo Fisher Scientific, France) supplemented with 10% (v/v) bovine calf serum (Dutscher, France) and 1% (v/v) penicillin-streptomycin (Thermo Fisher Scientific, France).
The cytotoxicity of the antimicrobial agents was examined by MTT [3(4,5-dimethylthiazol-2-yl)-2,5 diphenyl tetrazolium bromide] assays (Scientific Life—France) against HGF-1 cells. Cells were incubated for 24 h in a 96-wells plate before being treated with various concentrations of Ca(OH)2 alone or supplemented with the peptide. As a control, cells were plated in each 96-wells without being treated. After 24 h, 48 h and 72 h incubation, cells were carefully washed with PBS and treated with MTT at a final concentration of 0.25 mg/mL. HGF-1 cells were then incubated for 2 h at 37° C. before being lysed with isopropanol/HCL (48:2, v/v). Cell viability was assessed by reading the OD540 nm with a Multiskan EX microplate spectrophotometer (Thermo Fisher Scientific, France). The OD540 nm of each well was then compared to the […] of the control. For each set of experiments, standard deviations were determined.
A general note: Formazan colour is commonly taken as a measure of viable cells.

For data set [7] the following is noted: literature (Schmidtchen et al., 2002); cited from earlier work.

For `[Ca+2].[OH-].[OH-]` [Ca(OH)2], the “inhibition rate of E. faecalis growth” value in data set [1] is listed as 58% (±5%). For the same molecule, in data set [2], the “inhibition of C. albicans growth” value is given as 87%±2%. Further, in data set [3] (Ca(OH)2 0.85 mg/mL alone, or combined with ½ MIC of D-CTL), the “inhibition of F. nucleatum growth” value is recorded as 30%±10%. For the same molecule, the “inhibition of the growth of F. nucleatum” value in data set [3] (saturated solution of Ca(OH)2 (1.7 mg/mL, pH 9)) is given as 100% (±1%). Also, the “inhibition of P. intermedia growth” value in data set [4] is recorded as 77%±6%. Further, the “inhibition of P. micra growth” value in data set [5] was 15%±6%. In addition, the “toxicity on HGF-1” value in data set [6] (Ca(OH)2 0.425 g/L, after three days incubation) is given as “below 4% (±7%)”; in data set [6] (Ca(OH)2 0.85 g/L, after three days incubation), “below 4% (±7%)”; in data set [6] (saturated solution of Ca(OH)2 (1.7 mg/mL), after 24 h) it was 20% (±7%); in data set [6] (saturated solution of Ca(OH)2 (1.7 mg/mL), after 72 h incubation), 50% (±6%); in data set [6] (saturated solution of Ca(OH)2 (1.7 mg/mL), second of three values, time not clearly printed), 14% (±11%).

In the case of LL-37, in data set [7], the “degradation by the virulence factors of E. faecalis” value is reported as “completely degraded”.
